Experimental data: publication PMC4731787, “Structural basis for the recognition of two consecutive mutually interacting DPF motifs by the SGIP1 μ homology domain” (Scientific Reports, 2016)
Numbering of substitutions follows the chain as printed. Values belong to the molecule of their own block, whether it stands above or below them.

T1: SGIP1 µHD N670D (Homo sapiens, UniProt Q9BQI5, N670D)
T1 construct: the SGIP1 μHD (residues 552 to 828); GST (N, cleaved yes); made in house; host or cells: Escherichia coli (as for the wild-type μHD)
T1 sequence (Q9BQI5 552-828 N670D): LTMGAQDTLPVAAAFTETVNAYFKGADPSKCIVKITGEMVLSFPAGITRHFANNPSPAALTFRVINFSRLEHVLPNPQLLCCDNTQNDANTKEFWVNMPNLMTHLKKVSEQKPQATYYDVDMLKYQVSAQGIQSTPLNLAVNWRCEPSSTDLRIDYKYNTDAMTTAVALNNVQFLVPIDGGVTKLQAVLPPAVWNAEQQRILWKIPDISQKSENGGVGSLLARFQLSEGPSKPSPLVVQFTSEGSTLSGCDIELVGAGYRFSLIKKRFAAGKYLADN

T2: SGIP1 μHD (residues 552 to 828) (Homo sapiens, UniProt Q9BQI5)
T2 construct: the SGIP1 μHD (residues 552 to 828); GST (N, cleaved yes); made in house; host or cells: Escherichia coli BL21-Gold (DE3) or Rosetta2
T2 sequence (Q9BQI5 552-828): T1 sequence (Q9BQI5 552-828 N670D) with D119N

T3: SGIP1 µHD K816E (Homo sapiens, UniProt Q9BQI5, K816E)
T3 construct: the SGIP1 μHD (residues 552 to 828); GST (N, cleaved yes); made in house; host or cells: Escherichia coli (as for the wild-type μHD)
T3 sequence (Q9BQI5 552-828 K816E): T1 sequence (Q9BQI5 552-828 N670D) with D119N, K265E

T4: FCHo1 µHD (residues 623 to 889) (Homo sapiens, UniProt O14526)
T4 construct: GST (N, cleaved yes); made in house; host or cells: Escherichia coli (as for the SGIP1 μHD)
T4 sequence (O14526 623-889): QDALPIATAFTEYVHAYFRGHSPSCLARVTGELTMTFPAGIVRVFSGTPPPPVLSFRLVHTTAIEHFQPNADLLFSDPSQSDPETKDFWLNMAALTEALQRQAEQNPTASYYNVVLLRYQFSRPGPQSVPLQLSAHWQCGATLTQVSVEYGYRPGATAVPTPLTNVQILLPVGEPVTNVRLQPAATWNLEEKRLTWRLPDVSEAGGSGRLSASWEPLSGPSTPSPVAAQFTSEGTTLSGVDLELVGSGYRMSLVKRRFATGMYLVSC

T5: FCHo1 μ homology domain (residues 623 to 889) (human, UniProt O14526-1 623-889)
T5 construct: FCHo1 (FCH domain only 1), human, μ homology domain, residues 623-889; also called FCHo1 μHD; source: E. coli, purified in the same manner as for the SGIP1 μHD
T5 sequence (looked up): T4 sequence (O14526 623-889)

T6: SGIP1 μ homology domain (residues 552 to 828) (human, UniProt Q9BQI5-1 552-828)
T6 construct: A SeMet-substituted form (E. coli B834(DE3)) was used only for the structure of the domain alone; also called SGIP1 μHD; μHD; source: E. coli BL21-Gold (DE3) or Rosetta2, purified (Glutathione Sepharose, 3C protease cleavage on the column, Superdex 200)
T6 sequence (looked up): T1 sequence (Q9BQI5 552-828 N670D) with D119N

B1: Eps15-618–654 (domain or fragment, human, UniProt P42566-1 618-654, looked up)
chain: DFFQSDPFVGSDPFKDDPFGKIDPFGGDPFKGSDPFA
notes: also called 37-residue region containing six consecutive DPF motifs; source: E. coli, purified in the same manner as for the SGIP1 μHD
B2: FCHo1 µ homology domain (µHD), residues 623 to 889 (domain or fragment, human, UniProt O14526-1 623-889, looked up)
chain: T4 sequence (O14526 623-889)
notes: also called FCHo1 µHD; human FCHo1 µHD (aa623–889); source: E. coli, expressed and purified in the same manner as the SGIP1 µHD
B3: Eps15-618–654 (domain or fragment, human)
chain: GPLGSYDFFQSDPFVGSDPFKDDPFGKIDPFGGDPFKGSDPFA
notes: source: E. coli, expressed and purified in the same manner as the SGIP1 µHD

Assays:
SGIP1 µHD N670D = target: T1, SGIP1 µHD N670D; test: ITC of Eps15 fragments with the SGIP1 μHD N670D mutant; type: binding
Experimental: (§1) For the majority of the ITC experiments, the SGIP1 μHD, its mutants, or the FCHo1 μHD, in 50 mM Tris-HCl buffer (pH 8.0) containing 50 mM NaCl, was loaded in the sample cell, in a volume of 1.42 ml, and titrated with various Eps15-derived fragments or peptides in the same buffer, with an initial 5 μl injection and subsequent 10 μl injections, for a total of 25 injections. The titrations were performed while the samples were stirred at 310 r.p.m. at 25 °C. Each injection was followed by an interval of 4 min, to allow baseline stabilization. For the other ITC experiments indicated in Supplementary Table 2, the Eps15-derived fragments or peptides in the sample cell were titrated with the SGIP1 or FCHo1 μHD. All ITC experiments were performed on a VP-ITC microcalorimeter (MicroCal, LLC) and repeated twice, and the data were processed with the program NITPIC[42]. The two data sets from each ITC experiment were analyzed by global weighted least-squares fitting with the program SEDPHAT[43]. Figures for the ITC data were created with the program GUSSI (http://biophysics.swmed.edu/MBR/software.html). To obtain the values of the traditional stoichiometric parameter N in our ITC data analyses (Supplementary Table 2), we used the values of the parameters of the incompetent fractions of proteins and ligands. […]

[1] = target: T2, SGIP1 μHD (residues 552 to 828); test: ITC of Eps15 fragments with the SGIP1 μHD; type: binding; conditions: for -TΔS / ΔG / ΔH: 25 °C; for -TΔS / ΔG / ΔH / N (binding ratio of Eps15 fragment to μHD): μHD in cell titrated with fragment, single-site model; for ΔH / N (binding ratio of Eps15 fragment to μHD): ± 68.3% confidence interval
Summary of the method: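 Isothermal titration calorimetry was run at 25 °C in 50 mM Tris-HCl pH 8.0, 50 mM NaCl, mostly titrating Eps15 fragments or peptides into μHD protein in the cell (25 injections, 4 min apart). Some runs reversed the titration direction. Duplicate runs were globally fitted to single- or two-site models, with N derived from incompetent-fraction parameters.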

SGIP1 µHD K816E = target: T3, SGIP1 µHD K816E; test: ITC of Eps15 fragments with the SGIP1 μHD K816E mutant; type: binding
Experimental: as §1

[2] = target: T4, FCHo1 µHD (residues 623 to 889); test: ITC of Eps15 fragments with the FCHo1 μHD; type: binding; conditions: FCHo1 μHD in cell titrated with fragment, single-site model
Experimental: For the majority of the ITC experiments, the SGIP1 μHD, its mutants, or the FCHo1 μHD, in 50 mM Tris-HCl buffer (pH 8.0) containing 50 mM NaCl, was loaded in the sample cell, in a volume of 1.42 ml, and titrated with various Eps15-derived fragments or peptides in the same buffer, with an initial 5 μl injection and subsequent 10 μl injections, for a total of 25 injections. The titrations were performed while the samples were stirred at 310 r.p.m. at 25 °C. Each injection was followed by an interval of 4 min, to allow baseline stabilization. For the other ITC experiments indicated in Supplementary Table 2, the Eps15-derived fragments or peptides in the sample cell were titrated with the SGIP1 or FCHo1 μHD. All ITC experiments were performed on a VP-ITC microcalorimeter (MicroCal, LLC) and repeated twice, and the data were processed with the program NITPIC[42]. The two data sets from each ITC experiment were analyzed by global weighted least-squares fitting with the program SEDPHAT[43]. Figures for the ITC data were created with the program GUSSI (http://biophysics.swmed.edu/MBR/software.html). To obtain the values of the traditional stoichiometric parameter N in our ITC data analyses (Supplementary Table 2), we used the values of the parameters of the incompetent fractions of proteins and ligands. […] The values of the incompetent fractions are between 0 and 1, whereas the other parameter affecting the traditional parameter N, the number of sites, was fixed as 1 and 2, for the single- and two-site models, respectively. Thus, in the two-site model, the values of N for the first and second sites are identical in our ITC data analyses (Supplementary Table 2).

human full-length FCHo1 = conditions: pull-down assay; lower than the other longer fragments with more DPF motifs tested in the same reference; ref Umasankar et al.23; cited from earlier work
Source text: page 12: Supplementary Table 3 Regions of Eps15, Eps15R, and Dab2, involved in binding to the µHDs of SGIP1/ SGIP1α/FCHo1/FCHo2 from various sources. µHD-containing protein µHD-binding Region involved in binding Number of DPF motifs Method used to confirm binding Strength of Reference protein to the µHD in the binding region affinity mouse SGIP1 µHD (aa501–807) Eps15 a residues 594–896 15 b pull-down assay (competition) unknown Reider et al. 8 mouse SGIP1α µHD (aa561–854) rat Eps15 residues 593–894 15 pull-down assay unknown Uezu et al.19 mouse SGIP1α µHD (aa428–854) rat Eps15 residues 636–747 ...

[3] = target: T5, FCHo1 μ homology domain (residues 623 …); test: ITC; VP-ITC, 25 °C, 50 mM Tris-HCl pH 8.0, 50 mM NaCl; for the majority the μHD (SGIP1, its mutants or FCHo1) in the cell, titrated with Eps15 fragments or peptides, for others the reverse (Supplementary Table 2); repeated twice, global fit with SEDPHAT, single-site or two-site model; conditions: both partners purified
[4] = target: T6, SGIP1 μ homology domain (residues 552 …); test: as above; conditions: both partners purified
Eps15-618–654 = target: B3; test: ITC; Eps15 fragment in the sample cell, titrated with the SGIP1 or FCHo1 µHD; 50 mM Tris-HCl (pH 8.0), 50 mM NaCl, 25 °C; VP-ITC; two data sets fitted globally (NITPIC, SEDPHAT); single-site or two-site model as named in the quantity; conditions: both partners purified
[5] = target: B2; test: ITC; µHD, µHD mutant or α-adaptin appendage domain in the sample cell, titrated with the Eps15 fragment or peptide; 50 mM Tris-HCl (pH 8.0), 50 mM NaCl, 25 °C; VP-ITC; two data sets fitted globally (NITPIC, SEDPHAT); single-site model; conditions: both partners purified
[6] = target: B2; test: ITC; Eps15 fragment in the sample cell, titrated with the SGIP1 or FCHo1 µHD; 50 mM Tris-HCl (pH 8.0), 50 mM NaCl, 25 °C; VP-ITC; two data sets fitted globally (NITPIC, SEDPHAT); single-site or two-site model as named in the quantity; conditions: both partners purified
[7] = 25 °C, 50 mM Tris-HCl pH 8.0, 50 mM NaCl, mutant μHD in cell titrated with fragment, two runs

- binding to SGIP1 μHD with Asn670 replaced by Asp (in words) (SGIP1 µHD N670D): abolished the binding
- Kd (SGIP1 µHD N670D; [7]): below detection limit
- -TΔS [1]: 2.106 kcal/mol
- ΔG [1]: -6.166 kcal/mol
- ΔH [1]: -8.272 ± 0.679 kcal/mol
- N (binding ratio of Eps15 fragment to μHD) [1]: 0.66 ± 0.03
Molecule: Ac-YDPFGGDPFKG-NH2 [Eps15-640–649]

- binding to SGIP1 μHD with Lys816 replaced by Glu (in words) (SGIP1 µHD K816E): abolished the binding
- Kd (SGIP1 µHD K816E; [7]): below detection limit
- -TΔS [1]: 3.482 kcal/mol
- ΔG [1]: -7.559 kcal/mol
- ΔH [1]: -11.041 ± 0.191 kcal/mol
- N (binding ratio of Eps15 fragment to μHD) [1]: 0.66 ± 0.01
- Kd ([2]; 25 °C, 50 mM Tris-HCl pH 8.0, 50 mM NaCl, global fit of two runs, ± 68.3% confidence interval): 5500 ± 1400 nM
- -TΔS ([2]; 25 °C): 0.748 kcal/mol
- ΔG ([2]; 25 °C): -7.175 kcal/mol
- ΔH ([2]; 25 °C, ± 68.3% confidence interval): -7.923 ± 1.098 kcal/mol
- N (binding ratio of Eps15 fragment to FCHo1 μHD) ([2]; ± 68.3% confidence interval): 0.64 ± 0.06
Molecule: Ac-YDPFGGDPFKGSDPFA-NH2 [Eps15-640–654]
- binding to the SGIP1 μHD (in words) [1]: slightly stronger affinity than Eps15-622–637

Molecule: Eps15 residues 595–636: Eps15 region of a previous report, first DPF motifs of the high-affinity site, source assumed human (SKEEDPFNVDSSSLTGPVADTNLDFFQSDPFVGSDPFKDDPF; UniProt P42566 595-636, looked up, fragment)
- Strength of affinity (human full-length FCHo1): low

Molecule: B1
- binding result [3]: binds
- Kd of the high-affinity site (two-site model) [4]: ~65 nM

Molecule: B2
- stoichiometry N (Eps15-618–654): 0.7

Molecule: B3
- Kd [5]: 270 nM
- stoichiometry N [5]: 0.59
- Kd [6]: 190 nM
